Source: patent US6670345B1 (Dabur Research Foundation, priority 1997, dated 2003)
Converted amounts (≈) assume the structure as drawn.

Assays:
Conditions in all cases: 72 hours
lymphoma cells (U937) = assay: MTT cytotoxicity assay, lymphoma cells (U937); format: cell-based, human
Description: (§1) After 72 hours, the assay was terminated and percent cyotoxicities calculated.

human prostate (DU145) = assay: MTT cytotoxicity assay, human prostate (DU145); format: cell-based
Description: as §1

leukemia cells (MOLT-4) = assay: MTT cytotoxicity assay, leukemia cells (MOLT-4); format: cell-based, human
Description: as §1

human larynx (HeP.2) = assay: MTT cytotoxicity assay, human larynx (HeP.2); format: cell-based
Description: as §1

human lung (L132) = assay: MTT cytotoxicity assay, human lung (L132); format: cell-based
Description: as §1

human colon (HT29) = assay: MTT cytotoxicity assay, human colon (HT29); format: cell-based
Description: as §1

[1] = test system: ovarian cancer cells (PA-1); assay: MTT cytotoxicity assay, ovarian cancer cells (PA-1); format: cell-based, human
Description: as §1

Compound	ED50 Lymphoma U937 (lymphoma cells (U937)) [µg/mL]	ED50 Prostate DU 145 (human prostate (DU145)) [µg/mL]	ED50 Leukemia MOLT-4 (leukemia cells (MOLT-4)) [µg/mL]	ED50 Larynx Hep. 2 (human larynx (HeP.2)) [µg/mL]	ED50 Lung L 132 (human lung (L132)) [µg/mL]	ED50 Colon HT-29 (human colon (HT29)) [µg/mL]	ED50 Ovary PA-I [1] [µg/mL]
CC(C)C1CCC2(C(=O)OC3CCC4(C)C(CCC5(C)C4CCC4C6C(C(C)C)CCC6(C(=O)O)CCC45C)C3(C)C)CCC3(C)C(CCC4C5(C)CC(Br)C(=O)C(C)(C)C5CCC43C)C12 (centres unmarked) [Derivative 1161]	0.3 (≈ 0.307 µM)	0.4 (≈ 0.41 µM)	0.34 (≈ 0.348 µM)	1.4 (≈ 1.43 µM)	3.5 (≈ 3.58 µM)	3.5 (≈ 3.58 µM)	1.2 (≈ 1.23 µM)
CC(C)C1CCC2(C(=O)OC(=O)C34CCC(C(C)C)C3C3CCC5C6(C)CC(Br)C(=O)C(C)(C)C6CCC5(C)C3(C)CC4)CCC3(C)C(CCC4C5(C)CC(Br)C(=O)C(C)(C)C5CCC43C)C12 (centres unmarked) [Derivative 1163]	3.8 (≈ 3.61 µM)	6.0 (≈ 5.7 µM)	1.6 (≈ 1.52 µM)	5.0 (≈ 4.75 µM)	6.5 (≈ 6.17 µM)	7.3 (≈ 6.93 µM)	>4.0
